From patent US20250275991A1, “ORAL COMPLEMENT FACTOR D INHIBITORS” (BioCryst Pharmaceuticals, Inc, priority 2019, published 2025)

Biological target: Factor D (Homo sapiens, UniProt P00746)
Test: Factor D esterolytic assay
Format: biochemical
Conditions: substrate Z-Lys-SBzl 1.29 mM, 100 mM HEPES, 500 mM NaCl, pH 7.5, 10% DMSO, tested a minimum of three times
Protocol: The IC50 value of a compound (i.e., the concentration of the compound that inhibits 50% of the enzymatic activity) was calculated according to the procedure reported in U.S. Pat. No. 6,653,340 B1, e.g., column 74 (incorporated by reference).
Specifically, the compounds were dissolved in a stock solution of DMSO at 10.0 or 100 mM. A portion of this stock solution was added to assay buffer in a final volume of 50 μL. Controls included buffer alone and enzyme solutions to which DMSO was added. Substrate was added to the reaction wells immediately or after incubation at room temperature. The reaction rates were measured spectrophotometrically by the generation of product at 405 nm for 600 sec. Background absorbance at 690 nm was measured and subtracted from the absorbance at 405 nm for each well.
The reaction rate for enzyme alone was compared to the rate of enzyme in the presence of inhibitor and the percent inhibition was calculated as shown below: […]
An established esterolytic assay for the measurement of Factor D activity and inhibition of Factor D activity was used (Kam, C. M.; McRae, B. J.; Harper, J. W.; Niemann, M. A.; Volanakis, J. E.; Powers, J. C. Human complement proteins D, C2, and B Active site mapping with peptide thioester substrates. J Biol. Chem. 1987, 262, 3444-3451). For this assay Z-Lys-SBzl, 1.29 mM (Kim, S.; Narayana, S. V. L; Volanakis, J. E. Mutational analysis of the substrate binding site of human complement Factor D. Biochemistry. 1994, 33, 14393-14399.) was used as the substrate for Factor D ([…]). Hydrolysis of this compound by Factor D liberated a free sulfhydryl group which is then reacted with 5,5′-dithiobis(2nitrobenzoic acid) producing an intense yellow color (Habeeb, A. F. S. A. Reaction of protein sulfhydryl groups with Ellman's Reagent. Methods in Enzymol. 1976, 25, 457-464). The assays were performed in 96 well microtiter plates and rates of hydrolysis were monitored at 405 nm on a Biotek Synergy H1 plate reader. Hydrolysis rates were reported as change in mOD/min. The assay was conducted in 100 mM HEPES, 500 mM NaCl, pH 7.5 containing 10% DMSO in a final volume of 50 μL per well.
An IC50, a compound concentration which inhibits 50% of the enzymatic activity, was calculated. Compounds in the examples were tested a minimum of three times.

Sequence of Factor D (P00746 26-253): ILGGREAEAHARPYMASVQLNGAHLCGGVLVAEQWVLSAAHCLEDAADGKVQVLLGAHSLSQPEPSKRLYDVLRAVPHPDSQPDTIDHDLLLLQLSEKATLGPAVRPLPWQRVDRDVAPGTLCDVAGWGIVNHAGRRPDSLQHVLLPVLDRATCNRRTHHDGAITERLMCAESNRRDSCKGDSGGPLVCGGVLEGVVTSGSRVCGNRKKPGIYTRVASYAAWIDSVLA

| IC50 | Compound |
| --- | --- |
| < 1 µM | CC(=O)c1ccc(CC(=O)O)c(OCc2cc(-c3cccc(CN)c3)c3occc3c2F)c1 [Compound 48g, 2-(4-acetyl-2-((7-(3-(aminomethyl)phenyl)-4-fluorobenzofuran-5-yl)methoxy)phenyl)acetic acid] |
| < 1 µM | Cc1ccc(CC(=O)O)c(OCc2cc(-c3cccc(CN)c3)c3occ(F)c3c2)c1 [Compound 49d, 2-(2-((7-(3-(aminomethyl)phenyl)-3-fluorobenzofuran-5-yl)methoxy)-4-methylphenyl)acetic acid] |
| > 10 µM | NCc1cc(-c2cc(COc3ccccc3CC(=O)O)cc3ccoc23)co1 [Compound 50e, 2-(2-((7-(5-(aminomethyl)furan-3-yl)benzofuran-5-yl)methoxy)phenyl)acetic acid] |
| < 1 µM | NCc1cccc(-c2cc(COc3cc(C(F)(F)F)ccc3CC(=O)O)cc3cc(F)oc23)c1 [Compound 53d, 2-(2-((7-(3-(aminomethyl)phenyl)-2-fluorobenzofuran-5-yl)methoxy)-4-(trifluoromethyl)phenyl)acetic acid] |
| < 1 µM | NCc1nccc(-c2cc(COc3cc(C(F)(F)F)ccc3CC(=O)O)cc3ccoc23)c1F [Compound 56f, 2-(2-((7-(2-(aminomethyl)-3-fluoropyridin-4-yl)benzofuran-5-yl)methoxy)-4-(trifluoromethyl)phenyl)acetic acid] |
| < 1 µM | NCc1cc(-c2cc(COc3cc(C(F)(F)F)ccc3CC(=O)O)cc3ccoc23)ccn1 [Compound 57b, 2-(2-((7-(2-(aminomethyl)pyridin-4-yl)benzofuran-5-yl)methoxy)-4-(trifluoromethyl)phenyl)acetic acid] |
| < 1 µM | NCc1cccc(-c2cc(COc3cc(C(F)(F)F)ccc3CC(=O)O)cc3ccoc23)c1F [Compound 58b, 2-(2-((7-(3-(aminomethyl)-2-fluorophenyl)benzofuran-5-yl)methoxy)-4-(trifluoromethyl)phenyl)acetic acid] |
| < 1 µM | CCc1ccc(CC(=O)O)c(OCc2cc(-c3ccnc(CN)c3F)c3oc(F)cc3c2)c1 [Compound 59i, 2-(2-((7-(2-(aminomethyl)-3-fluoropyridin-4-yl)-2-fluorobenzofuran-5-yl)methoxy)-4-ethylphenyl)acetic acid] |
| < 1 µM | NCc1cccc(-c2cc(C(CC(=O)O)Oc3ccccc3CC(=O)O)cc3ccoc23)c1 (stereo not drawn) [Compound 62g, 3-(7-(3-(aminomethyl)phenyl)benzofuran-5-yl)-3-(2-(carboxymethyl)phenoxy)propanoic acid] |
| 1 to 10 µM | NCc1ccn(-c2cc(COc3ccccc3CC(=O)O)cc3ccoc23)c1 [Compound 63f, 2-(2-((7-(3-(aminomethyl)-1H-pyrrol-1-yl)benzofuran-5-yl)methoxy)phenyl)acetic acid] |
| < 1 µM | CC(=O)c1ccc(CC(=O)O)c(OCc2cc(-c3cccc(CN)c3)c3oc(F)cc3c2)c1 [Compound 64h, 2-(4-acetyl-2-((7-(3-(aminomethyl)phenyl)-2-fluorobenzofuran-5-yl)methoxy)phenyl)acetic acid] |
| < 1 µM | NCc1cccc(-c2cc(COc3ccccc3CC(=O)O)c(OCC(=O)O)c3ccoc23)c1 [Compound 65g, lithium 2-((7-(3-(aminomethyl)phenyl)-5-((2-(carboxymethyl)phenoxy)methyl)benzofuran-4-yl)oxy)acetate] |
| < 1 µM | CC(C)Oc1c(COc2ccccc2CC(=O)O)cc(-c2cccc(CN)c2)c2occc12 [Compound 66f, 2-(2-((7-(3-(aminomethyl)phenyl)-4-isopropoxybenzofuran-5-yl)methoxy)phenyl)acetic acid] |
| < 1 µM | COc1c(COc2ccccc2CC(=O)O)cc(-c2cccc(CN)c2)c2occc12 [Compound 67f, 2-(2-((7-(3-(aminomethyl)phenyl)-4-methoxybenzofuran-5-yl)methoxy)phenyl)acetic acid] |
| < 1 µM | NCc1cccc(-c2cc(COc3ccccc3CC(=O)O)c(C3CC3)c3ccoc23)c1 [Compound 68g, 2-(2-((7-(3-(aminomethyl)phenyl)-4-cyclopropylbenzofuran-5-yl)methoxy)phenyl)acetic acid] |
